Assay results reported in article PMC6512342 (Biochemical pharmacology, 2018).
“And” between values parts separate entries of the source, which are not always exact repeats. Equal entries are not always repeated.

Key:
human CYP2D6 = human CYP2D6 (Homo sapiens, UniProt P10635); assay: Substrate-induced spin shift titration, purified CYP2D6 in solution; type: binding; conditions: for maximal amplitude of the spin shift: purified CYP2D6 in solution
[1] = biological target: T1, human CYP2D6 (CYP2D6-incorporated proteoliposomes) (Homo sapiens, UniProt P10635); assay: Substrate-induced spin shift titration, CYP2D6-PLS; type: binding; conditions: for Kd: dissociation constant (KD), spin shift titration
CYP2D6 = conditions: read-out: KM for BMAMC; CYP2D6-containing bacterial membranes; cited from earlier work
[2] = biological target: T1, human CYP2D6 (CYP2D6-incorporated proteoliposomes); assay: Spectroscopic study of MDMA-dependent MIC formation in CYP2D6-PLS; type: biochemical
[3] = biological target: T2, CYP2D6 (CYP2D6 Supersomes) (Homo sapiens, UniProt P10635); assay: Spectroscopic study of MDMA-dependent MIC formation in CYP2D6-SS; type: biochemical; conditions: 100 μM MDMA, exponential fit
[4] = biological target: T1, human CYP2D6 (CYP2D6-incorporated proteoliposomes); assay: MDMA utilization and DHMA formation in CYP2D6-PLS; type: in vitro ADME
[5] = healthy volunteers, recreational dose 100–150 mg; cited from earlier work
[6] = biological target: T1, human CYP2D6 (CYP2D6-incorporated proteoliposomes); assay: MDMA-dependent time-dependent inhibition
[7] = biological target: T2, CYP2D6 (CYP2D6 Supersomes); assay: MDMA-dependent TDI in CYP2D6-SS with BMAMC as probe substrate; conditions: 100 μM MDMA, exponential fit
[8] = MDMA liver-to-blood ratio and liver concentration; conditions: estimated from plasma peak and liver-to-blood ratio
CYP3A4 = conditions: cited from earlier work
[9] = substrate: CCCCNCc1cc(=O)oc2cc(OC)ccc12; assay: Fluorometric determination of CYP2D6 activity with BMAMC in CYP2D6-SS; type: biochemical, human; conditions: other: CYP2D6-SS, 30 °C
[10] = CYP2D6-PLS, 100 μM MDMA, exponential fit
[11] = kinetic model fit, kinetics of MIC formation
[12] = kinetic model fit, kinetics of DHMA production

For `COc1ccc2c(c1)[C@]13CCCC[C@@H]1[C@H](C2)N(C)CC3` [DXM, Dextromethorphan], the Kd (human CYP2D6) was 45.7 ± 3.1 µM, the “maximal amplitude of the spin shift” value (human CYP2D6) was 11.9±1.8% and the “maximal amplitude of the spin shift (Amax)” value [1] was 25% and 24.7±0.4%. The Kd [1] was 52 µM and 53.2 µM.

For `CCCCNCc1cc(=O)oc2cc(OC)ccc12` [BMAMC, N-butyl 7-methoxy-4-(aminomethyl)-coumarin], the Km (CYP2D6) is given as 1.5 µM.

For `CNC(C)Cc1ccc2c(c1)OCO2` (stereo not drawn) [MDMA, 3,4-methylenedioxymethamphetamine], the Kd (human CYP2D6) was 21.8 ± 7.7 µM, the “maximal amplitude of the spin shift” value (human CYP2D6) was 6.0± 1.5% and the “maximal amplitude of the spin shift (Amax)” value [1] was 8.1% and 10.9±5.5%. The Kd [1] was 24 µM and 27.9 µM, the “Amax (MIC)” value [2, 10] was 37% and the “Kobs (MIC)” value [2, 10] was 0.085 min⁻¹. The “maximal amplitude of MIC formation” value ([2]; CYP2D6-PLS, saturating MDMA) was 45 ± 3 % of the total P450 content, the Kd ([2]; kD, kinetic model fit, kinetics of MIC formation, k2/k1 with k1 fixed) was 55.5 µM and the k3 [2, 11] was 1.7 min⁻¹. For the same molecule, the k4 [2, 11] was 0.167 min⁻¹, the k5 [2, 11] was 0.027 min⁻¹ and the Finact ([2]; kinetic model fit, kinetics of MIC formation, CYP2D6-PLS) was 0.423 and 0.42. The “Amax (MIC)” value [3] was 49%, the “Kobs (MIC)” value [3] was 0.19 min⁻¹ and the Kd [4] was 49.5 µM. For the same molecule, the “MDMA concentration after incubation” value ([4]; CYP2D6-PLS with NADPH, 1 hour, initial 5 μM MDMA) was 1.5 µM, the “decrease in MDMA concentration” value ([4]; CYP2D6-PLS with NADPH, 1 hour, initial 100 μM MDMA) was ≤ 30 % of the initial concentration and the k3 [4, 12] was 3.9 min⁻¹. It also gave a k4 [4, 12] of 0.14 min⁻¹, a k5 [4, 12] of 0.047 min⁻¹ and a k6 ([4]; kinetic model fit, kinetics of DHMA production, MDMA-independent inactivation) of 0.041 min⁻¹. For the same molecule, the Finact ([4]; kinetic model fit, kinetics of DHMA production, value fixed from MIC analysis) was 0.42, the “peak concentration in blood plasma” value [5] was 1 pM and the Kd [6] was 23.9 µM. For the same molecule, the “reversibility of inactivation of CYP2D6” value ([6]; CYP2D6-PLS) was “reversible”, the “Kobs (TDI)” value [6, 10] was 0.15 min⁻¹ and the “maximal depth of TDI at enzyme saturation with MDMA” value ([6]; CYP2D6-PLS, DXM as probe substrate, Michaelis-Menten fit) was 80±8%. For the same molecule, the “relative amplitude of TDI at MDMA saturation” value ([6]; CYP2D6-PLS, rate of BMAMC metabolism) was “over 80%”, the k3 ([6]; kinetic model fit, TDI) was 3.2 min⁻¹ and the k4 ([6]; kinetic model fit, TDI) was 0.085 min⁻¹. The k5 ([6]; kinetic model fit, TDI) was 0.033 min⁻¹, the k6 ([6]; kinetic model fit, TDI, MDMA-independent inactivation) was 0.005 min⁻¹ and the Finact ([6]; kinetic model fit, TDI, value fixed from MIC analysis) was 0.42. The “Kobs (TDI)” value [7] was 0.28 min⁻¹ and the “physiological concentration of MDMA in human liver” value [8] was ≤ 10 pM.

In the case of `COc1cc([C@@H]2c3cc4c(cc3[C@H](O)[C@H]3COC(=O)[C@H]23)OCO4)cc(OC)c1OC` [podophylotoxin], the “reversibility of the Fe2+:carbene complex (MIC)” value (CYP3A4) is listed as “virtually irreversible”.

B1: CYP2D6 (CYP2D6 Supersomes) (Homo sapiens) (protein)
chain: MGLEALVPLAVIVAIFLLLVDLMHRRQRWAARYPPGPLPLPGLGNLLHVDFQNTPYCFDQLRRRFGDVFSLQLAWTPVVVLNGLAAVREALVTHGEDTADRPPVPITQILGFGPRSQGVFLARYGPAWREQRRFSVSTLRNLGLGKKSLEQWVTEEAACLCAAFANHSGRPFRPNGLLDKAVSNVIASLTCGRRFEYDDPRFLRLLDLAQEGLKEESGFLREVLNAVPVLLHIPALAGKVLRFQKAFLTQLDELLTEHRMTWDPAQPPRDLTEAFLAEMEKAKGNPESSFNDENLRIVVADLFSAGMVTTSTTLAWGLLLMILHPDVQRRVQQEIDDVIGQVRRPEMGDQAHMPYTTAVIHEVQRFGDIVPLGVTHMTSRDIEVQGFRIPKGTTLITNLSSVLKDEAVWEKPFRFHPEHFLDAQGHFVKPEAFLPFSAGRRACLGEPLARMELFLFFTSLLQHFSFSVPTGQPRPSHHGVFAFLVSPSPYELCAVPR
For B1, the Km [9] was 3.5 µM.
